From US7396858B2, “Biguanide derivative and therapeutic agent for diabetes containing the same” (Chugai Seiyaku Kabushiki Kaisha, priority 2002, dated 2008)
Values joined by “and” are separate entries in the source; they are usually repeats but may differ in a detail not shown here. Equal values may be shown once.

Tested on: female mice (C57BLKS/J-m +/+ Lepr<db> (db/db))
Assay: Oral glucose tolerance test (blood glucose and blood lactic acid levels)
Format: in vivo
Conditions: subcutaneous, AUC up to 2 hours vs solvent group; for Blood glucose reduction rate (%): 30 min before oral glucose 3 g/kg; for Blood lactic acid level increase rate (%): oral glucose tolerance test
Method: Measurement of blood glucose reduction rate and blood lactic acid levels by the aforementioned oral glucose tolerance test may be carried out by a publicly known method, and preferred methods are described below. Specifically, 11- to 17-week-old female mice (C57BLKS/J-m +/+ Lepr (db/db)) are starved for 18-24 hours. A group of five or six mice is used for the test. Blood is sampled from the tail for measurement of the blood glucose levels and blood lactic acid levels before treatment as controls. After sampling, the biguanide derivative is dissolved in phosphate-buffered physiological saline at a suitable concentration and subcutaneously administered at a dose of 5 ml/kg. As controls are prepared mice administered only the solvent. Glucose is then administered orally at a dose of 3 g/6 ml/kg at 30 minutes after administration of the compound or solvent as an oral glucose tolerance test. Blood is sampled from the tail for measurement of the blood glucose levels and the blood lactic acid levels 30 minutes, 1 hour and 2 hours after glucose administration. The blood glucose levels are measured using a New Blood Sugar Test (Roche Diagnostics) or a Glucose CII-Test Wako (Wako Pure Chemical Industries, Ltd.). The blood lactic acid levels are measured using an “Asuka Sigma” (Sigma Diagnostics).
The blood glucose reduction rate and the blood lactic acid level increase rate are calculated according to the following formulas. Blood glucose reduction rate (%)=[(AUC for blood glucose increase level of solvent-administered group−AUC for blood glucose increase level of compound-administered group)/AUC for blood glucose increase level of solvent-administered group]×100
The blood lactic acid level increase rate is calculated according to the following formula. Blood lactic acid level increase rate (%)=[(AUC for blood lactic acid level of compound-administered group−AUC for blood lactic acid level of solvent-administered group)/AUC for blood lactic acid level of solvent-administered group]×100
Eleven- to seventeen-week-old female mice (C57BLKS/J-m +/+ Lepr (db/db)) were starved for 18-24 hours, and a group of six mice was used for the test. Blood was sampled from the tail for measurement of the blood glucose levels and blood lactic acid levels before treatment. […] As a control, the solvent alone was subcutaneously administered to mice similarly.
Glucose was then administered orally at a dose of 3 g/6 ml/kg at 30 minutes after administration of the compound or solvent as an oral glucose tolerance test. Blood was sampled from the tail for measurement of the blood glucose levels and blood lactic acid levels 30 minutes, 1 hour and 2 hours after glucose administration. The blood glucose levels were measured using a New Blood Sugar Test (Roche Diagnostics) or a Glucose CII-Test Wako (Wako Pure Chemical Industries, Ltd.). The blood lactic acid levels were measured using an “Asuka Sigma” (Sigma Diagnostics).

| SMILES | Blood glucose reduction rate (%) (dosage 50 mg/kg) | Blood glucose reduction rate (%) (dosage 75 mg/kg) | Blood lactic acid level increase rate (%) (dosage 75 mg/kg) | Blood glucose reduction rate (%) (dosage 37.5 mg/kg) | Blood lactic acid level increase rate (%) (dosage 37.5 mg/kg) | Blood glucose reduction rate (%) (dosage 200 mg/kg) |
| --- | --- | --- | --- | --- | --- | --- |
| N=C(N)NC(=N)NCc1ccoc1 [1-[(Furan-3-yl)methyl]biguanide, 1-[(furan-3-yl)methyl]biguanide] | 40.3 | 65.5% | 9.7% |  |  |  |
| [H]/N=C(/N)N/C(=N/[H])NCCc1ccccc1 [Phenformin] |  | 64.5% and 78.0% and 60.8% and 61.4% and 72.8% and 69.6% | 93.6% and 151.6% and 94.7% and 120.8% and 141.1% and 114.8% | 39.5% and 72.7% | 46.4% and 83.1% |  |
| CN(C)C(=N)N=C(N)N [Metformin] |  |  |  |  |  | 56.0% and 41.8% |
